ChEMBL document CHEMBL5360591, “Licochalcone A Derivatives as Selective Dipeptidyl Peptidase 4 Inhibitors with Anti-Inflammatory Effects” (J Nat Prod, 2023)
The source made the active and inactive calls. No cut-off for these calls is given here.

Assays:
Dipeptidyl peptidase 4 [1] = target: T1, Dipeptidyl peptidase 4 (Homo sapiens, UniProt P27487); assay: Inhibition of DPP4 in human plasma using GP-BAN as fluorescent substrate preincubated for 5 mins followed by substrate addition and measured for 20 mins by microplate reader analysis; assay type: cell-free
Target sequence in this assay (P27487 whole entry): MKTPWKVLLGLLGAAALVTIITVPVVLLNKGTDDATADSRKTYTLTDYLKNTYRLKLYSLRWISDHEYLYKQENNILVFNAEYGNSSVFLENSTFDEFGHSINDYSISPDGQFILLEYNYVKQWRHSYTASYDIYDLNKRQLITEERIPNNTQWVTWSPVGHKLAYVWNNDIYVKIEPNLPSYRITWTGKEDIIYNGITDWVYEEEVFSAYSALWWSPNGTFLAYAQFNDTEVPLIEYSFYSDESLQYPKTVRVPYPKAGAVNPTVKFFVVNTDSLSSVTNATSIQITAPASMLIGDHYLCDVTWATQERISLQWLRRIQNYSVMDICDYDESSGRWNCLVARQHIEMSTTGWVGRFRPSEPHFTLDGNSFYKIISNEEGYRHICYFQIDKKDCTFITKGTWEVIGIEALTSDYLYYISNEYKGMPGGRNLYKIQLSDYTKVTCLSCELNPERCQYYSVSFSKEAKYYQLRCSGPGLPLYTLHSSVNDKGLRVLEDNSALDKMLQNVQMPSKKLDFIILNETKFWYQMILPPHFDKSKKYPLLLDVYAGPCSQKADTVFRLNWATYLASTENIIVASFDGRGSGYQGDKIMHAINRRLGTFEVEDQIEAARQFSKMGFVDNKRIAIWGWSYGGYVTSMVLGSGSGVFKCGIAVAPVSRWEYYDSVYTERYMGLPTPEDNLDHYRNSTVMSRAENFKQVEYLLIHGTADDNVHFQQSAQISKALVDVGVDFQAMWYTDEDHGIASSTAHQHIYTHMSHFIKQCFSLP

Dipeptidyl peptidase 4 [2] = target: T1, Dipeptidyl peptidase 4; assay: Mixed type inhibition of DPP4 (unknown origin) using varying concentrations of GP-BAN as substrate assessed as inhibition constant
Target sequence in this assay (P27487 whole entry): as above

RAW264.7 [3] = assay: Anti-inflammatory activity in mouse RAW264.7 cells assessed as downregulation of LPS-stimulated IL-6 mRNA expression at 20 to 100 uM preincubated for 4 hrs followed by LPS-stimulation for 24 hrs by qPCR analysis; assay type: functional, cell-based; conditions: dose 20-100 µM, time 28.0 hrs
Homo sapiens [4] = species: Homo sapiens; assay: Selectivity index, ratio of IC50 for inhibition of recombinant human PREP to IC50 for inhibition of recombinant human DPP4
Homo sapiens [5] = species: Homo sapiens; assay: Selectivity index, ratio of IC50 for inhibition of recombinant human DPP9 to IC50 for inhibition of recombinant human DPP4
[6] = Stability of the compound in artificial intestinal fluid at 10 uM incubated for 90 mins by LC-UV analysis; assay type: ADME; conditions: simulated gi fluid, 1.5 h
RAW264.7 [7] = assay: Cytotoxicity against mouse RAW264.7 cells assessed as cell growth inhibition incubated for 48 hrs by CCK-8 assay; assay type: toxicity, cell-based; conditions: raw264.7, 48 h
[8] = Metabolic stability in human liver microsomes assessed as UDPGA-dependent drug metabolism by measuring half life at 10 uM preincubated for 3 mins followed by UDPGA addition measured for 90 mins by LC-UV analysis; assay type: ADME, Microsome; conditions: time 93 min
RPTEC = assay: Cytotoxicity against human RPTEC cells assessed as cell growth inhibition incubated for 48 hrs by CCK-8 assay; assay type: toxicity, cell-based
Dipeptidyl peptidase 4 [9] = target: T1, Dipeptidyl peptidase 4; assay: Inhibition of DPP4 in human Caco-2 cells using GP-BAN as substrate assessed reduction of reduction in substrate hydrolysis at 20 uM incubated for 30 mins by Hoechst 33342 staining based assay; assay type: cell-based
Target sequence in this assay (P27487 whole entry, looked up): as the sequence (P27487 whole entry) above

Prothrombin = Prothrombin (Homo sapiens, UniProt P00734); assay: Inhibition of recombinant thrombin in human plasma using […] as substrate preincubated for 3 mins followed by substrate addition and measured for 30 mins by microplate reader analysis; assay type: cell-free
Dipeptidyl peptidase 4 [10] = target: T1, Dipeptidyl peptidase 4; assay: Inhibition of recombinant human DPP4 using GP-BAN as substrate preincubated for 5 mins followed by substrate addition and measured after 20 mins by microplate reader analysis
Target sequence in this assay (P27487 whole entry): as above

RAW264.7 [11] = assay: Anti-inflammatory activity in mouse RAW264.7 cells assessed as downregulation of LPS-stimulated TNF-alpha mRNA expression at 20 to 100 uM preincubated for 4 hrs followed by LPS-stimulation for 24 hrs by qPCR analysis; assay type: functional, cell-based; conditions: dose 20-100 µM, time 28.0 hrs
Dipeptidyl peptidase 4 [12] = target: T1, Dipeptidyl peptidase 4; assay: Inhibition of DPP4 in human HepG2 cells using GP-BAN as substrate assessed reduction of reduction in substrate hydrolysis at 20 uM incubated for 30 mins by Hoechst 33342 staining based assay; assay type: cell-based
Target sequence in this assay (P27487 whole entry, looked up): as the sequence (P27487 whole entry) above

[13] = Metabolic stability in human liver microsomes assessed as […] drug metabolism by measuring half life at 10 uM preincubated for 3 mins followed by NADPH addition measured for 90 mins by LC-UV analysis; assay type: ADME, Microsome; conditions: time 93 min
[14] = Stability of the compound in artificial gastric fluid at 10 uM incubated for 90 mins by LC-UV analysis; assay type: ADME; conditions: simulated gi fluid, 1.5 h
Prolyl endopeptidase FAP = target: T2, Prolyl endopeptidase FAP (Homo sapiens, UniProt Q12884); assay: Inhibition of recombinant human FAP using Z-GP-AMC as substrate preincubated for 5 mins followed by substrate addition and measured after 20 mins by microplate reader analysis
T2 sequence (Q12884 whole entry): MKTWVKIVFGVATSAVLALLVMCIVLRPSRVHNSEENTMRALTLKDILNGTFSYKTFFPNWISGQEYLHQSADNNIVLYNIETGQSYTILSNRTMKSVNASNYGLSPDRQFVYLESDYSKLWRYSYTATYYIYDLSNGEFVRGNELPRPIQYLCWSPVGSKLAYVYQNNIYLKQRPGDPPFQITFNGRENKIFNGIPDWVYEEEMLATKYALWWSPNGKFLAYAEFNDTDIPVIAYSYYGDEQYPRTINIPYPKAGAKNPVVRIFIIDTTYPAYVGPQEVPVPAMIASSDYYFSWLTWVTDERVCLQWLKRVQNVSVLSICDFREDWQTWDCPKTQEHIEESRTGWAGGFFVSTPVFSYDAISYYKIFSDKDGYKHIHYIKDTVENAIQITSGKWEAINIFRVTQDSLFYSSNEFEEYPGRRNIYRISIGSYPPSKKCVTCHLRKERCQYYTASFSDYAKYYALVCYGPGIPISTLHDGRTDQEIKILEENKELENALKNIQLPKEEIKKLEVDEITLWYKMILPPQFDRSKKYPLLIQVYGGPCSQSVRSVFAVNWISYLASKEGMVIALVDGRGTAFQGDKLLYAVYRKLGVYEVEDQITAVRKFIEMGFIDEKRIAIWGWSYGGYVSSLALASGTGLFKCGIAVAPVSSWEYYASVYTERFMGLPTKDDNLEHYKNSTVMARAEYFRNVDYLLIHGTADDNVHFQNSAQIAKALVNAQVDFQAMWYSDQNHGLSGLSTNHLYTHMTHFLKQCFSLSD

Prolyl endopeptidase = target: T3, Prolyl endopeptidase (Homo sapiens, UniProt P48147); assay: Inhibition of recombinant human PREP using Z-GP-AMC as substrate preincubated for 5 mins followed by substrate addition and measured after 20 mins by microplate reader analysis
T3 sequence (P48147 whole entry): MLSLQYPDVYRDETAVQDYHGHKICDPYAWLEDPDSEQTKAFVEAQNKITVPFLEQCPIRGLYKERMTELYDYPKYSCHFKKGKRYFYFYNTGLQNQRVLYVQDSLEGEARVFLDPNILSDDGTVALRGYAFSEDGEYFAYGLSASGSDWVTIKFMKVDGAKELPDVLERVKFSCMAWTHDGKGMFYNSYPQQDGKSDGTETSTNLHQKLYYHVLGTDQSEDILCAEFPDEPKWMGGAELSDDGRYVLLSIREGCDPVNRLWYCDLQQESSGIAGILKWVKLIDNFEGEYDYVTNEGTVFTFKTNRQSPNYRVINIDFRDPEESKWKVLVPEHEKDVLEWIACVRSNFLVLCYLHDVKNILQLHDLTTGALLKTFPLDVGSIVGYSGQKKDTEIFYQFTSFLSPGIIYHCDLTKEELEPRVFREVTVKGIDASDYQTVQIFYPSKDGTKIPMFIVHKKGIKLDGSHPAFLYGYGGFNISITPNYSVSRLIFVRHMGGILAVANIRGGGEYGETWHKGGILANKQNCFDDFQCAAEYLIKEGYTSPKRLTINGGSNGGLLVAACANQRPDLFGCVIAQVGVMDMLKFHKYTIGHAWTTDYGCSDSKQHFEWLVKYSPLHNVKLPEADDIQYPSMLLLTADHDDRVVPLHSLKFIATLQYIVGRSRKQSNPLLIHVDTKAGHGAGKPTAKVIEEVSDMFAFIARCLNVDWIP

Dipeptidyl peptidase 9 = Dipeptidyl peptidase 9 (Homo sapiens, UniProt Q86TI2); assay: Inhibition of recombinant human DPP9 using Z-GP-AMC as substrate preincubated for 5 mins followed by substrate addition and measured after 20 mins by microplate reader analysis
RAW264.7 [15] = assay: Anti-inflammatory activity in mouse RAW264.7 cells assessed as downregulation of LPS-stimulated IL-1beta mRNA expression at 20 to 100 uM preincubated for 4 hrs followed by LPS-stimulation for 24 hrs by qPCR analysis; assay type: functional, cell-based; conditions: dose 20-100 µM, time 28.0 hrs

Chain of Dipeptidyl peptidase 9 (Q86TI2 whole entry): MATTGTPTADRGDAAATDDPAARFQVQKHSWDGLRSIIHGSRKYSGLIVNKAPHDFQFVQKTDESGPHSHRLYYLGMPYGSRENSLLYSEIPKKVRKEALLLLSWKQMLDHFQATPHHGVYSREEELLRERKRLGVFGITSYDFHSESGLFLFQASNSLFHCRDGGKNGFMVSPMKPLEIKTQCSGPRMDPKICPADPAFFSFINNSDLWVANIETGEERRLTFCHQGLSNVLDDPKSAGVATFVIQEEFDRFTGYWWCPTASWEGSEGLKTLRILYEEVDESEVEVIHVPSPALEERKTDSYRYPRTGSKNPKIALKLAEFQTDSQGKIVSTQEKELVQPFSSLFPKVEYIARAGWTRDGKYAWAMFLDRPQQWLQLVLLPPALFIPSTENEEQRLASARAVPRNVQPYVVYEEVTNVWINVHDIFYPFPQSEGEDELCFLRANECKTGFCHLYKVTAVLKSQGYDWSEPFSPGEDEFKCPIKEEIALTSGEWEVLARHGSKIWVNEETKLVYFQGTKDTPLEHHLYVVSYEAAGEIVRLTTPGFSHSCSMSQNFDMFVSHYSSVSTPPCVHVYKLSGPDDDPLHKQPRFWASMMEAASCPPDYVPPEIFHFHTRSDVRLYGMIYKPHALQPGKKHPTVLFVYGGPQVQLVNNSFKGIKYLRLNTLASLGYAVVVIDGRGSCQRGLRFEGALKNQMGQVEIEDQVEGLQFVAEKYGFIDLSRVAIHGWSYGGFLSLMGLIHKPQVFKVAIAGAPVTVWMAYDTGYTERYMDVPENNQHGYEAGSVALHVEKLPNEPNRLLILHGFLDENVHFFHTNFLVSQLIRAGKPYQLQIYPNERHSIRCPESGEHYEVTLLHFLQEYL

Question: Which IC50 (Dipeptidyl peptidase 4 [1]) does the source give for COc1cc(O)c(Cl)cc1/C=C/C(=O)c1ccc(O)c(O)c1 here?
Answer: 8.86 µM

Question: And the Ki (Dipeptidyl peptidase 4 [2])?
Answer: 11.1 µM

Question: Which IC50 (Dipeptidyl peptidase 4 [1]) does the source give for CCOc1ccc(C(=O)/C=C/c2cc(Cl)c(OC)cc2OC)cc1 here?
Answer: > 100 µM

Question: With COc1cc(O)c(Cl)cc1/C=C/C(=O)c1ccc(O)c([N+](=O)[O-])c1 as the molecule, how does the Activity (RAW264.7 [3]) read?
Answer: Active

Question: What about the Ratio IC50 (Homo sapiens [4]) of the same molecule?
Answer: > 12.7

Question: And the Ratio IC50 (Homo sapiens [5])?
Answer: > 12.7

Question: What about the Stability [6] of the same molecule?
Answer: Stable

Question: And the IC50 (Dipeptidyl peptidase 4 [1])?
Answer: 4.27 µM

Question: What about the Activity (RAW264.7 [7]) of the same molecule?
Answer: Non-Toxic

Question: What about the half-life at 10 µM [8] of the same molecule?
Answer: 25.4 min

Question: What about the Ki (Dipeptidyl peptidase 4 [2]) of the same molecule?
Answer: 0.96 µM

Question: And the Activity (RPTEC)?
Answer: Non-Toxic

Question: And the inhibition (Dipeptidyl peptidase 4 [9])?
Answer: Active

Question: And the IC50 (Prothrombin)?
Answer: > 100 µM

Question: What about the IC50 (Dipeptidyl peptidase 4 [10]) of the same molecule?
Answer: 4.87 µM

Question: And the Activity (RAW264.7 [11])?
Answer: Active

Question: What about the inhibition (Dipeptidyl peptidase 4 [12]) of the same molecule?
Answer: Active

Question: And the half-life at 10 µM [13]?
Answer: 197 min

Question: And the Stability [14]?
Answer: Stable

Question: And the IC50 (Prolyl endopeptidase FAP)?
Answer: > 100 µM

Question: What about the IC50 (Prolyl endopeptidase) of the same molecule?
Answer: 62.1 µM

Question: And the IC50 (Dipeptidyl peptidase 9)?
Answer: 86.3 µM

Question: What about the Activity (RAW264.7 [15]) of the same molecule?
Answer: Active

Question: For COc1ccc(C(=O)/C=C/c2cc(Cl)c(O)cc2OC)cc1, which IC50 (Dipeptidyl peptidase 4 [1]) is on record?
Answer: 11 µM

Question: With O=c1ccc2ccc(O)cc2o1 [UMBELLIFERONE] as the molecule, how does the half-life at 10 µM [8] read?
Answer: 17.1 min

Question: With COc1ccc(C(=O)/C=C/c2cc(Cl)c(O)cc2OC)cc1O as the molecule, how does the IC50 (Dipeptidyl peptidase 4 [1]) read?
Answer: 9.09 µM

Question: What about the Ki (Dipeptidyl peptidase 4 [2]) of the same molecule?
Answer: 23.1 µM

Question: For COc1cc(O)c(Br)cc1/C=C/C(=O)c1ccc(O)cc1, which IC50 (Dipeptidyl peptidase 4 [1]) is on record?
Answer: 16.4 µM

Question: For COc1ccc(C(=O)/C=C/c2cc(Cl)c(OC)cc2OC)cc1, which IC50 (Dipeptidyl peptidase 4 [1]) is on record?
Answer: > 100 µM

Question: With COc1cc(O)c(Cl)cc1/C=C/C(=O)c1ccc(C(F)(F)F)cc1 as the molecule, how does the IC50 (Dipeptidyl peptidase 4 [1]) read?
Answer: 12.6 µM

Question: For CCCCOc1ccc(C(=O)/C=C/c2cc(Br)c(O)cc2OC)cc1, which IC50 (Dipeptidyl peptidase 4 [1]) is on record?
Answer: > 100 µM

Question: With CCCOc1ccc(C(=O)/C=C/c2cc(Br)c(O)cc2OC)cc1 as the molecule, how does the IC50 (Dipeptidyl peptidase 4 [1]) read?
Answer: 26.5 µM

Question: With CCCOc1ccc(C(=O)/C=C/c2cc(Cl)c(OC)cc2OC)cc1 as the molecule, how does the IC50 (Dipeptidyl peptidase 4 [1]) read?
Answer: > 100 µM

Question: For COc1cc(C(=O)/C=C/c2cc(Cl)c(O)cc2OC)ccc1O, which IC50 (Dipeptidyl peptidase 4 [1]) is on record?
Answer: 31.9 µM

Question: What does the source list for C[C@@H]1C[C@H]2[C@@H]3CCC4=CC(=O)C=C[C@]4(C)[C@@]3(F)[C@@H](O)C[C@]2(C)[C@@]1(O)C(=O)CO?
Answer: Activity (RAW264.7 [3]): Active; Activity (RAW264.7 [11]): Active; Activity (RAW264.7 [15]): Active
